Test results taken from patent US10828272B2, “Means to facilitate food intake and food retention” (Chardon Group B.V., priority 2012, dated 2020).
Structures can show the parent of a compound that is named as a salt.

Test system: Wistar rats
Experiment: Food intake test (30 min, living mealworms) in non-deprived rats
Type: in vivo, rat
Conditions: for Dose needed for effect on food intake in this procedure (conclusion): into esophagus
Description: In the following examples food intake tests were run with cohorts of 32 Wistar rats having food intake sessions in two groups of 16 rats in parallel. There were 8 rats per experimental group. The rats weighed in the range of 260-370 grams. Rats were acclimatized to the housing conditions in our laboratory for at least one week after arrival from the breeder. The rats were housed in pairs in Macrolon cages of 42×26 cm and 15 cm high, with standard food and water available ad libitum. The day-night cycle was not reversed (lights on at 7:00 AM, off 19:00 PM). Food intake tests were run in the same room wherein the rats were housed in the light period of the diurnal cycle of the rats. In a further period the rats were habituated to human handling and to the manner of presentation of mealworms in the food intake tests. Food intake was measured with rats without food deprivation. Food intake tests were done by placing the rats from their home cage individually into clean Macrolon (42×26×15 cm) cages without bedding. A weighed amount of at least 15-20 g living mealworms in a petri dish was placed in the middle of the cage and rats were allowed 30 minutes for eating mealworms. During the 30 minute test for food intake no drinking water was available. Injection treatments were administered at determined times before the food intake test. After drug administration the rats were returned to their home cage. Both rats of a pair in a living cage were assigned to the same treatment groups. Otherwise allocation of rats to experimental groups was done such that the treatments were equally and randomly spread over the duration of an experiment. The experimenter remained in the test room for the duration of an experiment. This allowed observation of general behavioural effects of the treatments. Abnormalities were recorded.
For drug administration commercially available stock solutions in vials were used: • lidocainehydrochloride 20 mg/ml injection fluid (Fresenius Kabi); procainamidehydrochloride 100 mg/ml injection fluid (Apotheek Haagse Ziekenhuizen); • ropivacainehydrochloride 7.5 mg/ml injection fluid (Fresenius Kabi); • metoclopramine (Sigma) was weighed and dissolved for use.
Drugs were administered in volumes of 1 ml/kg rat.
Vehicle: for local anesthetics the commercial physiological saline solutions for injection were used directly or the solution was diluted with distilled water. Alginate for a 2% viscous alginate solution was added 18 hours before use of the solution for injection. The solution was prepared to a viscous solution by allowing 18 hours of slow mechanical mixing.
For administration of the drug into the lumen of the esophagus the injection fluid was administered by entering a thick needle with rounded tip via, and into the esophagus just above the lower esophageal sphincter and retreating during injection to release the volume to be injected just behind the pharynx.
For administration into the stomach a similar 1 mm thick needle with a 2 mm tip and 60 mm length was introduced into the stomach via the esophagus as customary for oral administration in rats.
For administration subcutaneously (sc) the injection fluid was injected with a sharp thin needle under the skin in the neck.

Question: CCN(CC)CCNC(=O)c1ccc(N)cc1 [Procainamide, procainamidehydrochloride] was tested. Which “Grams of mealworms eaten (AVG)” value (Example 3, 20 m/kg esophagus, 30 minutes before test) did it give?
Answer: The value was 12.11 grams.

Question: And the “Grams of mealworms eaten (AVG)” value (Example 4, 100 m/kg esophagus, 30 minutes before test)?
Answer: Its value is 10.55 grams.

Question: What about the “Dose needed for effect on food intake in this procedure (conclusion)” value (30 minutes before test) of the same compound?
Answer: Its value is “higher than 20 mg/kg”.

Question: What does the source list for CCCN1CCCC[C@H]1C(=O)Nc1c(C)cccc1C.Cl [Ropivacaine, ropivacainehydrochloride]?
Answer: Grams of mealworms eaten (AVG) (Example 3, 1.25 mg/kg esophagus, 30 minutes before test): 13.40 grams; Grams of mealworms eaten (AVG) (Example 4, 3.75 mg/kg esophagus, 30 minutes before test): 12.08 grams; Grams of mealworms eaten (AVG) (Example 4, 7.5 mg/kg esophagus, 30 minutes before test): 13.58 grams; Effect on food intake (conclusion) (Example 4, 7.5 mg/kg in the esophagus): enhanced food intake; Effect on meal size (conclusion) (Example 5, 7.5 mg/kg and 11.25 mg/kg in the esophagus): effective in increasing meal size; Grams of mealworms eaten (AVG) (Example 5, 7.5 mg/kg esophagus): 13.24 grams; Grams of mealworms eaten (AVG) (Example 5, 7.5 mg/kg stomach): 10.72 grams; Grams of mealworms eaten (AVG) (Example 5, 11.25 mg/kg esophagus): 14.44 grams; Dose needed for effect on food intake in this procedure (conclusion) (30 minutes before test): higher than 1.25 mg/kg

Question: For CCN(CC)CCNC(=O)c1cc(Cl)c(N)cc1OC [metoclopramide], which “Grams of mealworms eaten (AVG)” value (Example 6, 3 mg/kg sc, 30 minutes before test) is on record?
Answer: The value was 11.86 grams.

Question: What about the “Grams of mealworms eaten (AVG)” value (Example 6, 10 mg/kg sc, 30 minutes before test) of the same compound?
Answer: The value was 1.25 grams.

Question: And the “Grams of mealworms eaten (AVG)” value (Example 6, 30 mg/kg sc, 30 minutes before test)?
Answer: Its value is 0.22 grams.

Question: What about the “Effect on food intake (conclusion)” value (Example 6, subcutaneously at doses above 3 mg/kg) of the same compound?
Answer: Its value is “inhibits food intake”.

Question: What about the “Grams of mealworms eaten (AVG)” value (Example 7, 0.1 mg/kg sc, 30 minutes before test) of the same compound?
Answer: The value was 13.51 grams.

Question: What about the “Grams of mealworms eaten (AVG)” value (Example 7, 0.3 mg/kg sc, 30 minutes before test) of the same compound?
Answer: Its value is 12.23 grams.

Question: And the “Grams of mealworms eaten (AVG)” value (Example 7, 1 mg/kg sc, 30 minutes before test)?
Answer: The value was 15.76 grams.

Question: What about the “Effect on food intake (conclusion)” value (Example 7, 0.1 and 0.3 mg/kg subcutaneously) of the same compound?
Answer: Its value is “ineffective”.

Question: What about the “Effect on food intake (conclusion)” value (Example 7, subcutaneous injection of 1 mg/kg) of the same compound?
Answer: The value was “increases food intake”.

Question: Which “Grams of mealworms eaten (AVG)” value (Example 1, 1 mg/kg into esophagus, 30 minutes before test) does the source give for CCN(CC)CC(=O)Nc1c(C)cccc1C [Lidocaine•HCl, lidocainehydrochloride] here?
Answer: Its value is 14.85 grams.

Question: What about the “Grams of mealworms eaten (AVG)” value (Example 1, 3 mg/kg into esophagus, 30 minutes before test) of the same compound?
Answer: Its value is 14.46 grams.

Question: And the “Grams of mealworms eaten (AVG)” value (Example 1, 10 mg/kg into esophagus, 30 minutes before test)?
Answer: Its value is 14.54 grams.

Question: What about the “Grams of mealworms eaten (AVG)” value (Example 2, 20 mg/kg esophagus, 15 minutes before test) of the same compound?
Answer: Its value is 16.91 grams.

Question: What about the “Grams of mealworms eaten (AVG)” value (Example 2, 20 mg/kg esophagus, 30 minutes before test) of the same compound?
Answer: Its value is 17.14 grams.

Question: What about the “Grams of mealworms eaten (AVG)” value (Example 2, 20 mg/kg stomach, 30 minutes before test) of the same compound?
Answer: Its value is 16.28 grams.

Question: What about the “Effect on food intake, esophagus compared with stomach (conclusion)” value (Example 2, 20 mg/kg, application in the esophagus versus into the stomach) of the same compound?
Answer: Its value is “more effective”.

Question: And the “Effect on food intake (conclusion)” value (Example 2, dose of 20 mg/kg)?
Answer: The value was “effective”.

Question: And the “Dose needed for effect on food intake in this procedure (conclusion)” value (30 minutes before test)?
Answer: Its value is “above 10 mg/kg”.
